Data set [1] has as its target T1, recombinant α3L GlyRs expressed in HEK293 cells (Homo sapiens, UniProt O75311).
T1 construct: expressed in transfected cells; host or cells: HEK293
The data set can be described thus: Whole-cell patch-clamp recordings of GlyR-transfected HEK293 cells. The format is cell-based. The following applies: for EC50 / IC50: n = 7 cells; for EC50: mean ± SEM, read-out: EC50 of glycine-induced currents; for IC50: IC50 of strychnine inhibition; for IC50 / Ki: 60 μM glycine; for Ki: Ki of strychnine (Cheng-Prusoff). In general terms: In patch-clamp work, channel activity is measured electrically.
Experimental: Current responses from GlyR-transfected HEK293 cells were measured at room temperature (21–23°C) at a holding potential of −50 mV using a HEKA EPC10 amplifier (HEKA Electronics, Lambrecht, Germany) controlled by Pulse software (HEKA Electronics). Recording pipettes were pulled from borosilicate glass (World Precision Instruments, Berlin, Germany) using a Sutter P-97 horizontal puller (Sutter, Novato, CA, USA). Solutions were applied using an Octaflow system (NPI electronics, Tamm, Germany). The external buffer consisted of 135 mM NaCl, 5.5 mM KCl, 2 mM CaCl2, 1.0 mM MgCl2, and 10 mM Hepes (pH adjusted to 7.4 with NaOH); the internal buffer was 140 mM CsCl, 1.0 mM CaCl2, 2.0 mM MgCl2, 5.0 mM EGTA, and 10 mM Hepes (pH adjusted to 7.2 with CsOH). […] Dose-response data were fitted to the Hill equation (see Supplementary Material) to determine EC50 and IC50.
Ki was calculated using the Cheng-Prusoff correction, significance was tested using one-way ANOVA with p < 0.05 considered significant. […] All data are means ± SEM; significance levels (relative to control) are indicated: *p ≤ 0.5; **p ≤ 0.01; ns, not significant.
Cell Culture and Transfection – HEK293 cells were grown in 10 cm tissue culture Petri dishes in Eagle minimal essential medium (EMEM) (Lonza, Basel, Switzerland) supplemented with 10% FBS (Invitrogen, Karlsruhe, Germany) and penicillin/streptomycin (Sigma-Aldrich, Munich, Germany) at 5% CO2 and 37 °C in a water saturated atmosphere. For electrophysiological experiments, cells were plated on acetone treated glass coverslips in 24 well plates. Transfection was performed 1 day after cell passage using polyethyleneimine (PEI) (Sigma-Aldrich, Munich, Germany): 0.75 µg of receptor DNA and 1.0 µg of green fluorescent protein DNA were mixed in 50 µl EMEM; in a second Eppendorf tube, 3.5 µl PEI was added to 50 µl EMEM, mixed and combined with the DNA solution. After 20 min incubation at room temperature, the transfection solution was added dropwise to the cells. Measurements were performed 1-3 days after transfection.
Electrophysiological Recordings and Data Analysis – Current responses from GlyR-transfected HEK293 cells were measured at room temperature (21-23°C) at a holding potential of -50 mV. Whole-cell recordings were performed using a HEKA EPC10 amplifier (HEKA Electronics, Lambrecht, Germany) controlled by Pulse software (HEKA Electronics). Recording pipettes were pulled from borosilicate glass (World Precision Instruments, Berlin, Germany) using a Sutter P-97 horizontal puller (Sutter, Novato, CA).

For data set [2], the system named is GlyR. On the set-up: method as in Breitinger et al., 2016. The following applies: ref Breitinger et al., 2016, cited from earlier work; for on-rate of current enhancement: saturating concentrations; for EC50: read-out: EC50 for augmentation of glycine-mediated responses.
Data set [3] concerns Male Swiss Webster mice. The data set can be described thus: Tactile sensitivity (von Frey) test, paw withdrawal threshold. The following applies: for PWT ratio: individual mice and avg. In kind it is in vivo. The procedure:
(§1) See Supplementary Material S1 for experimental details. On the day of the experiment, mice were weighed and then fasted for 5–6 h to reduce variability in initial blood glucose levels (BGL). Mice had been accustomed to the test apparatus for 2–3 h on two separate days before experiments. Two hours before testing, mice were acclimatized to the measuring apparatus. For hotplate tests, mice were accustomed to the testing condition by placing them one by one on a switched off hotplate at room temperature for the set cut off time of 30 s. One hour before testing, baseline measurements for touch sensitivity were recorded. For both experiments, mice were then injected according to protocol. Blood glucose level was measured before and after injections (Figure 3A).
Mice were divided into four experimental groups (see main text). The investigator performing the measurements was blinded to treatment groups and to the blood glucose readings. All mice were measured for their Paw withdrawal threshold (PWT) using von Frey filaments on at least one occasion before the testing day to reduce the stress or surprise from the experiment. We used the up-and-down method to determine pain withdrawal thresholds (PWT; Bradman et al., [2015]) with 8 mN as the starting value (see Supplementary Material for details). Baseline PWT values for each mouse were determined before treatment. […] Measurements were limited to the time window of 5 min after the second injection (strychnine or vehicle) due to the fast elimination kinetics of low doses of strychnine.
• (i) Baseline PWT determination for each mouse, 30 min prior to the experiment; • (ii) at time t = 0, mice were injected with glucose (2 g/kg) or vehicle • (iii) at t = 30 min, mice were injected with strychnine (0.2 or 0.5 mg/kg) or vehicle; • (iv) at t = 35 min pain-related behavior was assessed.
Von Frey Experiment – The investigator performing the measurements was blinded to treatment groups and to the blood glucose readings. All mice were measured for their paw withdrawal threshold using the Von Frey filaments on at least one occasion before the testing day. That was done to reduce the stress or surprise that might result from exposure to new conditions on the day of the experiment. A baseline reading for each mouse is also taken before the test with the consideration to leave at least one-day gab between baseline and experiment measurement to minimize any effect of repetitive measurement. […]
We used the up-and-down method to determine pain withdrawal thresholds (PWT) (Bradman et al., 2015). To assess the starting force, baseline 50% PWT was measured in five naïve mice (20-35 g) by application of von Frey hairs in an ascending order of their applied force. […] Baseline PWT values for each mouse were determined before treatment. […]

Data set [4] has as its system Male Swiss Webster mice. As to the kind of experiment: Hotplate test (55°C), latency until pain-related reaction. In kind it is in vivo. The procedure: as §1
The investigator performing the measurements was blinded to treatment groups and to the blood glucose readings.

In data set [5] the test system is mice. To be noted: cited from earlier work; for LD50: mice, Patocka, 2009.
Data set [6] relates to recombinant α1, α1-β, and α3 GlyRs. Also on record: method as in Breitinger et al., 2015; Breitinger and Breitinger, 2016. The following applies: HEK293 cells, ref Breitinger et al., 2015, 2016; cited from earlier work.

These results are taken from article PMC6883931 (Frontiers in Molecular Neuroscience, 2019).

Each structure is given as a SMILES string. “And” between values parts separate entries of the source, which are not always exact repeats. Identical values can stand only once. Like-named read-outs stand apart in the source and are kept apart here. Where only a bound is given, the exact number is not on record here.

T1 sequence (O75311 34-464): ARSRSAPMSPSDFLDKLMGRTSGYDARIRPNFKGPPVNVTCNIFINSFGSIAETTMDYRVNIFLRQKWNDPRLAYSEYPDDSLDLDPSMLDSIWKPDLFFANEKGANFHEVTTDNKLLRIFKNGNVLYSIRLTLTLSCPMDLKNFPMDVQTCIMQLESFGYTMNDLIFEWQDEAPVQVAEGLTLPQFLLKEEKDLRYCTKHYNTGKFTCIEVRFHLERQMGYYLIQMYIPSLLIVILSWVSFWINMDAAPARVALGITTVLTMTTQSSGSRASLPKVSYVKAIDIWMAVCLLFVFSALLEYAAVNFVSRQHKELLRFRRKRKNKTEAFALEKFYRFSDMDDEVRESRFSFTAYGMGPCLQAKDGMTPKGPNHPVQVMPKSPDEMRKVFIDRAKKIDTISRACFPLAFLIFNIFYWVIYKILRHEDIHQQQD

In general, EC50 refers to the midpoint of the concentration-response curve. As for `NCC(=O)O` [Glycine, glycine], the concentration for a half-maximal effect (EC50) in data set [1] (after overnight preincubation with 50 mM glucose) worked out at 49.9 ± 5.3 µM; in data set [1] (control, no glucose preincubation (5.5 mM glucose in medium)), 106 ± 16 µM.
`OC[C@H]1O[C@@H](O[C@H]2[C@H](O)[C@@H](O)C(O)O[C@@H]2CO)[C@H](O)[C@@H](O)[C@H]1O` (mixture of isomers) [Lactose, lactose]: the “on-rate of current enhancement” value in data set [2] is reported as ~ 1.5 h.
Consider `OC[C@H]1O[C@@](CO)(O[C@H]2O[C@H](CO)[C@@H](O)[C@H](O)[C@H]2O)[C@@H](O)[C@@H]1O` [Sucrose, sucrose], for which, in data set [2], the “on-rate of current enhancement” value is ~ 1.5 h.
The IC50 is the midpoint of a concentration-inhibition curve. What is called Ki is a dissociation constant, usually derived from enzyme kinetics or from competition with a known ligand. For orientation: LD50 means the dose expected to kill half of the subjects tested. With `O=C1C[C@@H]2OCC=C3CN4CC[C@]56c7ccccc7N1[C@H]5[C@H]2[C@H]3C[C@H]46` [Strychnine, strychnine], the 50% inhibitory concentration (IC50) is 0.0307 ± 0.0028 µM in data set [1] (absence of glucose) and 0.0462 ± 0.0058 µM in data set [1] (cells preincubated with 50 mM glucose). The inhibition constant Ki in data set [1] (cells pretreated with 50 mM glucose) was 0.0198 ± 0.0016 µM; in data set [1] (control cells), 0.0188 ± 0.0014 µM. Further, the PWT ratio in data set [3] (no glucose – Strychnine 0.2 mg/kg) is 0.98 and 0.73 and 0.48 and 0.62 and 0.87 and 0.24 and 0.76 and 0.15; in data set [3] (no glucose – Strychnine 0.5 mg/kg), 0.17 and 1.46 and 0.19 and 0.30 and 0.14. In addition, the “time after which notable effects on pain sensitivity were gone” value in data set [3] (sub-lethal amounts of strychnine, IP) is over 5 min. Also, the “normalized time to response” value in data set [4] (strychnine 0.2 mg/kg IP, no glucose) was found to be 0.63 ± 0.10. The normalized response time in data set [4] (strychnine 0.5 mg/kg IP, no glucose) was found to be 0.30 ± 0.07. Besides, in data set [5] (2 mg/kg IP, Swiss Webster mice, ref Maher et al., 2014), the lethality is listed as 85%. Further, the LD50 in data set [5] (intraperitoneal (IP) injection, ref Prasad et al., 1981) is reported as 0.98 mg/kg; in data set [5] (oral administration, ref Setnikar et al., 1960) it was 2 mg/kg.
As for `OC[C@H]1OC(O)[C@H](O)[C@@H](O)[C@@H]1O` (stereo partly shown) [Glucose, glucose], the “time after which effects on pain-related behavior were fully developed” value in data set [3] (glucose 2 g/kg IP) is 20 min. Also, the “average normalized latency time” value in data set [4] (glucose 2 g/kg IP, no strychnine, normalized to baseline, mean ± SEM) turned out to be 1.79 ± 0.18. The normalized response time in data set [4] (glucose 2 g/kg pretreatment followed by 0.2 mg/kg strychnine) is recorded as 1.72 ± 0.44; in data set [4] (glucose 2 g/kg prior to 0.5 mg/kg strychnine challenge), 0.74 ± 0.15. Moreover, the “reduction of EC50 value” in data set [6] is 2–4 fold. In data set [2], the 50% effective concentration (EC50) is 6000 to 7000 µM. Also, in data set [2], the “on-rate of current enhancement” value is listed as under 0.5 h.
For `O=C(CO)[C@@H](O)[C@H](O)[C@H](O)CO` [Fructose, fructose], in data set [2], the 50% effective concentration (EC50) was 6000 to 7000 µM and the “on-rate of current enhancement” value is reported as under 0.5 h.
